# Marks after values point to notes of the source that are not given here.
# Columns and labels:
# Fisher F344 rats [1] = test: Hypocholesterolemic effects of five small peptides in Fisher F344 rats, hypercholesterolemic rat model (Example 9); format: in vivo; conditions: 100 mg/kg BW oral, 7 days, mean ± SD, n = 9-10; for HDL cholesterol (plasma): control 0.14 ± 0.08; for Total cholesterol (plasma): control 10.1 ± 2.2; for non HDL cholesterol (plasma): total minus HDL cholesterol, control 10.0 ± 2.2
# Source text: In short eighty male Fisher rats (F344) from Charles River (Sulzfeld, Germany), weighing 65-96 g were housed individually with free access to water and feed, with an alternating 12-hour light-dark cycle. The animals were fed a rodent atherogenic diet high in cholesterol and fat for the 2 weeks preceding the treatment. The macro-nutrient composition of the diet was as follows (g/100 g anhydrous mix): protein 20.8; fiber 4.2; fat 15; carbohydrate 48. The diet also contained 1.25 wt % cholesterol, 0.5 wt % sodium cholate and a standard vitamin and mineral mix, prepared according to rat nutritional requirements. The main fats consisted of cacoa butter (7.5 wt %) and soja oil (4.35 wt %). After 2 weeks of adaptation to the diet the rats were randomized according to body weight into […] of 10 animals. The […] were treated orally every morning for 7 days with either water (control group) or one of the following peptides: RPRPS, RGRPS, HPHPH, RPRP, KPKPS, at a dose of 100 mg/kg body weight (BW) while continuing the aetherogenic diet. There was no difference in feed consumption over the whole experiment. The day before the last administration, all animals were dosed orally in the evening and deprived of food overnight (14 hours) but allowed free access to water. At day 7 the fasted rats were treated again orally in the morning and after two hours the animals were sacrificed by withdrawing blood from the vena Cava under Isoflurane anesthesia. Blood was collected into tubes containing EDTA as an anticoagulant. Plasma was prepared from the blood by immediate centrifugation at 1600 g for 10 minutes at 4° C. Assays of plasma cholesterol and HDL-cholesterol (precipitation method) were determined enzymatically on a Hitachi 912 automatic analyzer (Roche Diagnostica, Switzerland). Non-HDL cholesterol was calculated by difference between total cholesterol and HDL cholesterol. One animal in the control group was excluded from the analysis due to hemolytic plasma which interfered with the measurements. All data are expressed as means±standard deviation (SD) for animals in each diet group, with n being the number of rats. Statistical significance of the mean differences between dietary groups was tested by one-way analysis of variance (ANOVA). If significant differences were found, the Dunnett's test for multiple comparison was used to compare each group to the control group. P values less than 0.05 were considered significant (Table 3).
# [2] = Solubility of cholesterol in mixed micelles (intramicellar cholesterol after 24 h at 37° C., centrifugation and filtration); conditions: 10 mg/ml test substance, 0.5 mM cholesterol, 6.6 mM taurocholate, 2.4 mM lecithin, pH 7.4, control 0.494
# Procedure: The mixed micelles were prepared according to the method described by Nagaoka et al. (Biochemical and Biophysical Research Communications 281: 11-17 (2001)) by sonication of a 15 mM phosphate buffer saline (PBS) solution containing 6.6 mM taurocholate, 2.4 mM lecithin, 0.5 mM cholesterol and either 10 mg/ml of octapeptide (RPRPRPSF, MW1012) or 10 mg/ml soy protein (SUPRO 760, Solea Belgium) at pH 7.4. The lipids, phospholipids and cholesterol were dissolved in methanol and dried before adding the PBS buffer and the peptides or the soy protein at a final concentration of 10 mg/ml. The resulting micellar solution was kept at 37° C. for 24 hours and centrifuged at 1000×g for 10 min. In order to separate any precipitated cholesterol from the intramicellar cholesterol the solution was then filtered through a 0.22 μm MILLEX-GP filter (Millipore, Bedford, Mass., USA). The intramicellar concentration of cholesterol was then determined enzymatically using a cholesterol kit and a Hitachi 912 automatic analyzer from Roche Diagnostica, Switzerland.
# Fisher F344 rats [3] = test: Hypocholesterolemic effects of peptides in Fisher F344 rats on atherogenic diet (Example 8); format: in vivo, rat; conditions: 7 days; for HDL cholesterol (plasma) / Total cholesterol (plasma) / non HDL cholesterol (plasma): mean ± SD, n = 10; for HDL cholesterol (plasma): control 0.22 ± 0.12; for Total cholesterol (plasma): control 12.8 ± 3.1; for non HDL cholesterol (plasma): total minus HDL cholesterol, control 12.5 ± 3.1
# Source text: Forty male Fisher rats (F344) from Charles River (Sulzfeld, Germany), weighing 70-85 g were housed individually with free access to water and feed, with an alternating 12-hour light-dark cycle. The animals were fed a rodent atherogenic diet high in cholesterol and fat for the 2 weeks preceding the treatment. The macro-nutrient composition of the diet was as follows (g/100 g anhydrous mix): protein 20.8; fiber 4.2; fat 15; carbohydrate 48. The diet also contained 1.25 wt % cholesterol, 0.5 wt % sodium cholate and a standard vitamin and mineral mix, prepared according to rat nutritional requirements. The main fats consisted of cacoa butter (7.5 wt %) and soja oil (4.35 wt %). After 2 weeks of adaptation to the diet the rats were randomized according to body weight into four experimental groups of 10 animals. The four groups were treated orally every morning for 7 days with either water (control group) or octapeptide (RPRPRPSF) at two doses of 200 and 800 mg/kg body weight (BW) respectively or soy protein (SUPRO 760) at 800 mg/kg BW while continuing the aetherogenic diet. There was no difference in feed consumption over the whole experiment. The day before the last administration, all animals were dosed orally in the evening and deprived of food overnight (14 hours) but allowed free access to water. At day 7 the fasted rats were treated again orally in the morning and after two hours the animals were sacrificed by withdrawing blood from the vena Cava under Isoflurane anesthesia. Blood was collected into tubes containing EDTA as an anticoagulant. Plasma was prepared from the blood by immediate centrifugation at 1600 g for 10 minutes at 4° C. Assays of plasma cholesterol and HDL-cholesterol (precipitation method) were determined enzymatically on a Hitachi 912 automatic analyzer (Roche Diagnostica, Switzerland). Non-HDL cholesterol was calculated by difference between total cholesterol and HDL cholesterol. All data are expressed as means±standard deviation (SD) for animals in each diet group, with n being the number of rats. Statistical significance of the mean differences between dietary groups was tested by one-way analysis of variance (ANOVA). If significant differences were found, the Dunnett's test for multiple comparison was used to compare each group to the control group. P values less than 0.05 were considered significant (Table 2).
# [4] = In vivo efficacy of peptide RPRPRPSF with and without beta-sitosterol (protocol of Nagaoka et al.); conditions: in combination with beta-sitosterol
# Source text: Peptide RPRPRPSF is chemically synthesized and beta-sitosterol is obtained from Sigma. Both compounds, apart and in combination, are subjected to a testing protocol which is essentially similar to the in vivo testing protocol described by Nagaoka et al., BBRC 281 (2001) 11-17.
# [5] = 200 and 800 mg/Kg BW oral, p < 0.05
substance,measurement,setting,value
HPHPH,HDL cholesterol (plasma),Fisher F344 rats [1],0.29 ± 0.13^b mmol/L
same,Total cholesterol (plasma),Fisher F344 rats [1],3.4 ± 1.2^b mmol/L
same,non HDL cholesterol (plasma),Fisher F344 rats [1],3.1 ± 1.3^b mmol/L
KPKPS,HDL cholesterol (plasma),Fisher F344 rats [1],0.29 ± 0.11^b mmol/L
same,Total cholesterol (plasma),Fisher F344 rats [1],3.0 ± 1.0^b mmol/L
same,non HDL cholesterol (plasma),Fisher F344 rats [1],2.7 ± 1.0^b mmol/L
RGRPS,HDL cholesterol (plasma),Fisher F344 rats [1],0.37 ± 0.14^b mmol/L
same,Total cholesterol (plasma),Fisher F344 rats [1],3.2 ± 0.4^b mmol/L
same,non HDL cholesterol (plasma),Fisher F344 rats [1],2.9 ± 0.4^b mmol/L
RPRP,HDL cholesterol (plasma),Fisher F344 rats [1],0.33 ± 0.11^b mmol/L
same,Total cholesterol (plasma),Fisher F344 rats [1],2.9 ± 0.4^b mmol/L
same,non HDL cholesterol (plasma),Fisher F344 rats [1],2.6 ± 0.4^b mmol/L
"RPRPRPSF [synthetic octapeptide R-P-R-P-R-P-S-F, MW1012]",Cholesterol content of the micellar solution,[2]; listed as Octapeptide,0.153 mmol/L
same,Cholesterol content of the micellar solution,[2]; listed as octapeptide (RPRPRPSF),drastically decreased
same,HDL cholesterol (plasma),Fisher F344 rats [3]; 200 mg/Kg BW oral,0.54 ± 0.20^b mmol/L
same,Total cholesterol (plasma),Fisher F344 rats [3]; 200 mg/Kg BW oral,4.1 ± 1.2^b mmol/L
same,non HDL cholesterol (plasma),Fisher F344 rats [3]; 200 mg/Kg BW oral,3.6 ± 1.2^b mmol/L
same,HDL cholesterol (plasma),Fisher F344 rats [3]; 800 mg/Kg BW oral,0.51 ± 0.17^b mmol/L
same,Total cholesterol (plasma),Fisher F344 rats [3]; 800 mg/Kg BW oral,3.4 ± 0.7^b mmol/L
same,non HDL cholesterol (plasma),Fisher F344 rats [3]; 800 mg/Kg BW oral,2.9 ± 0.7^b mmol/L
same,Non-HDL cholesterol (VLDL-cholesterol+LDL-cholesterol) levels as compared to the control group,Fisher F344 rats [3]; [5],significantly lowered
same,Plasma total cholesterol levels as compared to the control group,Fisher F344 rats [3]; [5],significantly lowered
same,Ratio of non-HDL cholesterol to HDL-cholesterol,Fisher F344 rats [3]; oral,positively affected
same,Plasma HDL-cholesterol compared to the control group,"Fisher F344 rats [3]; oral, p < 0.05",significantly increased
same,Effect on cholesterol in vivo,[4],further enhanced
RPRPS,HDL cholesterol (plasma),Fisher F344 rats [1],0.29 ± 0.06^b mmol/L
same,Total cholesterol (plasma),Fisher F344 rats [1],3.6 ± 1.1^b mmol/L
same,non HDL cholesterol (plasma),Fisher F344 rats [1],3.3 ± 1.2^b mmol/L

# Source: US20090318366A1, “CHOLESTEROL LOWERING PROTEIN HYDROLYSATES” (DSM IP ASSETS B.V., priority 2006, published 2009)
